Laboratory results taken from article PMC5766630, “Non-estrogenic Xanthohumol Derivatives Mitigate Insulin Resistance and Cognitive Impairment in High-Fat Diet-induced Obese Mice” (Scientific Reports, 2018).

How the values were obtained:
HFD-fed C57BL/6 J mice = test system: HFD-fed C57BL/6 J mice; set-up: method as in PMID 26976708; settings: oral, 60 mg/kg/day; cited from earlier work
mice = settings: cited from earlier work
quinone reductase = test system: quinone reductase; set-up: method as in PMID 10737704; settings: cited from earlier work
[1] = LC-MS/MS analysis of XN, DXN and TXN in mouse liver, plasma and muscle; assay type: in vivo; settings: for Plasma concentration, fold greater than combined XN + IX / Muscle concentration, fold greater than combined XN + IX / Liver concentration, fold greater than combined XN + IX: HFD mice, 30 mg/kg/day in diet, 13 weeks; for Muscle concentration, fold greater than combined XN + IX: hind leg skeletal muscle; for Liver concentration, fold greater than combined XN + IX: steady state
Excerpt: Nine-week old male C57BL/6J mice, obtained from The Jackson Laboratory (Bar Harbor, ME, USA), were housed individually in plastic cages under a 12–12-hr light-dark cycle. They were assigned randomly to four groups consisting of 12 mice each. One group (control) was fed a HFD (Dyets Inc., Bethlehem, PA, USA) containing 60%, 20% and 20% total calories from fat, carbohydrate and protein, respectively, and the other three groups were fed the HFD containing XN, DXN, or TXN. The test compounds were dissolved in an isotropic mixture of oleic acid:propylene glycol:Tween 80, 0.9:1:1 by weight (OPT) before incorporation into the HFD. The control diet contained an identical amount of OPT. All diets were prepared in pellet form by Dyets, Inc. (Bethlehem, PA, USA). The mouse diets were formulated to deliver a dose of 30 mg test compound per kg body weight per day. Food intake was measured three times per week and body weights were recorded weekly. At the end of 13 weeks of feeding, the mice were euthanized and blood, liver and skeletal muscle were collected for analyses. All animal protocols were approved by Institutional Animal Care and Use Committee (IACUC) at Oregon State University. Animal experiments were carried out in accordance with the relevant guidelines and regulations.
Liver and plasma from each mouse were subjected to enzymatic hydrolysis, extracted and analyzed using the paper strip extraction technique as previously described[36],[96]. For skeletal muscle, approximately 200 mg of frozen muscle tissue were placed into tubes containing ceramic beads (1.4 mm Ceramic, Bulk Beads, Fisher Scientific, Pittsburgh, PA, USA) and methanol:water (90:10; 500 μL/200 mg tissue) and homogenized using a Precellys 24 (PEQLAB Biotechnology GmbH, Germany). The tissue was homogenized for 3 × 30 sec at 6,500 rpm with 20 sec intervals and then centrifuged at 15,700 × g for 10 minutes and 100 μl of supernatant was used for the paper strip extraction as previously described[36],[96]. Concentrations of XN, DXN and TXN were calculated using an internal standard, 2′,4-dihydroxychalcone (DHC), with matrix-based calibration curves and Analyst Software (Analyst 1.5, AB Sciex, Foster City, CA, USA). Samples were analyzed by LC-MS/MS using an AB Sciex 4000 Q-trap triple quadrupole mass spectrometer using a source temperature of 600 °C and a needle voltage of −4500 V. The source, curtain and collision gases were all nitrogen. Analytes were separated by high performance liquid chromatography (HPLC) using a 2.1 × 50 mm Agilent Zorbax 300 SB – C8 3.5 µm column (Agilent, Santa Clara, CA, USA). The elution gradient was 25 to 60% solvent B (0.1% formic acid in acetonitrile) in solvent A (aqueous 0.1% formic acid) in 2.6 minutes using a flow rate of 0.5 ml/min after an initial 1.4 min at 25% solvent B. The gradient was then increased to 100% solvent B in 0.1 min and held at 100% B for 1.4 min, then dropped to 25% B in 0.25 minutes, followed by re-equilibration with 25% B for 9.25 minutes. SRM transitions for quantification were: m/z 353 → 119 for XN, m/z 353 → 233 for IX, m/z 339 → 219 for 8-PN, m/z 355 → 249 for DXN, m/z 357 → 251 for TXN, and m/z 239 → 119 for DHC.

Plasma concentration, fold greater than combined XN + IX [1]	Muscle concentration, fold greater than combined XN + IX [1]	concentration at 13 weeks ([1]; male, C57BL/6J, mouse, liver, oral dosing at 30 mg/kg/day, read-out: Liver concentration (highest measured))	Liver tissue concentration (highest measured) ([1]; mouse dose of 30 mg/kg/day)	Liver concentration, fold greater than combined XN + IX [1]	Structure (SMILES)	HOMA-IR, change vs vehicle/HFD controls (HFD-fed C57BL/6 J mice)	Interleukin-6 (IL-6), change vs vehicle/HFD controls (HFD-fed C57BL/6 J mice)	Leptin, change vs vehicle/HFD controls (HFD-fed C57BL/6 J mice)	Plasma LDL-c, change vs vehicle/HFD controls (HFD-fed C57BL/6 J mice)	Plasma PCSK9, change vs vehicle/HFD controls (HFD-fed C57BL/6 J mice)	Dose with no detectable toxicity (mice)	Induction of quinone reductase (quinone reductase)
–	–	–	–	–	COc1cc(O)c(CC=C(C)C)c(O)c1C(=O)/C=C/c1ccc(O)cc1 [XN, 3′-[3,3-dimethylallyl]-2′,4′,4-trihydroxy-6′-methoxychalcone]	−52%	−78%	−41%	−80%	−44%	at least 1,000 mg/kg	potent inducer
10 fold	5 fold	5 µM	5 nmol/g	12 fold	COc1cc(O)c(CCC(C)C)c(O)c1C(=O)CCc1ccc(O)cc1 [TXN, tetrahydroxanthohumol]	–	–	–	–	–	–	–
7 fold	7 fold	–	–	6 fold	COc1cc(O)c(CC=C(C)C)c(O)c1C(=O)CCc1ccc(O)cc1 [DXN, α,β-Dihydroxanthohumol]	–	–	–	–	–	–	–
